{"source": "patent US9994515B2", "about": "“Aryl naphthyl methanone oxime(s) and process for preparation thereof” (Council of Scientific & Industrial Research, priority 2013, dated 2018)", "conditions_in_all_cases": "Table 1, MTT assay after 48 h treatment", "key": {"K562": {"tested_on": "K562", "experiment": "MTT cytotoxicity assay in K562 cells", "type": "cell-based"}, "HL60": {"tested_on": "HL60", "experiment": "MTT cytotoxicity assay in HL-60 cells", "type": "cell-based"}, "NIH3T3": {"tested_on": "NIH3T3", "experiment": "MTT cytotoxicity assay in NIH3T3 fibroblasts", "type": "cell-based, mouse", "description": "To consider a molecule as a candidate compound in cancer drug therapy, the test compound must have specific cytotoxicity towards the cancer cells without affecting normal cell growth. Therefore, all active compounds were assessed for toxicity in non-cancer cell-lines: mouse fibroblast cell line (NIH3T3) and monkey kidney epithelial cells (Vero). […] Therefore, based on safety index ([…]), 5d [Centans; based on IUPAC name prefixed with Central Drug Research Institute's signature (Cent)] was selected as a lead compound."}}, "note": "Structures can show the parent of a compound that is named as a salt.", "data": [{"smiles": "CSc1ccc(/C(=N/OC(C)CN(C)C)c2cccc3ccccc23)cc1", "note": "(stereo not drawn) [Compound 5g, (4-(methylthio)phenyl)(naphthalen-1-yl)methanone O-1-(dimethylamino)propan-2-yl oxime oxalate]", "values": [{"measurement": "IC50", "setting": "K562; Homo sapiens, K562, 48 h", "value": "> 50", "unit": "µM"}, {"measurement": "IC50", "setting": "HL60; Homo sapiens, HL-60, 48 h", "value": "> 50", "unit": "µM"}, {"measurement": "IC50", "setting": "NIH3T3; Mus musculus, NIH3T3, 48 h", "value": "> 50", "unit": "µM"}]}, {"smiles": "CSc1ccc(/C(=N/OCCN(C(C)C)C(C)C)c2cccc3ccccc23)cc1", "note": "[Compound 5e, (4-(methylthio)phenyl)(naphthalen-1-yl)methanone O-2-(diisopropylamino)ethyl oxime]", "values": [{"measurement": "IC50", "setting": "K562; Homo sapiens, K562, 48 h", "value": 7, "unit": "µM"}, {"measurement": "IC50", "setting": "HL60; Homo sapiens, HL-60, 48 h", "value": 14, "unit": "µM"}, {"measurement": "IC50", "setting": "NIH3T3; Mus musculus, NIH3T3, 48 h", "value": 16, "unit": "µM"}]}, {"smiles": "CCN(CC)CCO/N=C(/c1ccc(SC)cc1)c1cccc2ccccc12", "note": "[Compound 5i, (4-(methylthio)phenyl)(naphthalen-1-yl)methanone O-2-(diethylamino)ethyl oxime citrate]", "values": [{"measurement": "IC50", "setting": "K562; citrate", "value": "> 30", "unit": "µM"}, {"measurement": "IC50", "setting": "HL60; citrate", "value": "> 50", "unit": "µM"}, {"measurement": "IC50", "setting": "NIH3T3; citrate", "value": 40, "unit": "µM"}]}, {"smiles": "CCN(CCCCO/N=C(/c1ccc(SC)cc1)c1cccc2ccccc12)Cc1ccccc1", "note": "[Compound 8d, (4-(methylthio)phenyl)(naphthalen-1-yl) methanone O-4-(benzyl(ethyl)amino)butyl oxime]", "values": [{"measurement": "IC50", "setting": "K562; Homo sapiens, K562, 48 h", "value": 16.3, "unit": "µM"}, {"measurement": "IC50", "setting": "HL60; Homo sapiens, HL-60, 48 h", "value": "> 50", "unit": "µM"}, {"measurement": "IC50", "setting": "NIH3T3; Mus musculus, NIH3T3, 48 h", "value": "> 50", "unit": "µM"}]}, {"smiles": "COc1ccc(/C(=N/OC(C)CN(C)C)c2cccc3ccccc23)cc1", "note": "(stereo not drawn) [Compound 6f, (4-methoxyphenyl)(naphthalen-1-yl)methanone O-1-(dimethylamino)propan-2-yl oxime oxalate]", "values": [{"measurement": "IC50", "setting": "K562; Homo sapiens, K562, 48 h", "value": "> 50", "unit": "µM"}, {"measurement": "IC50", "setting": "HL60; Homo sapiens, HL-60, 48 h", "value": "> 50", "unit": "µM"}, {"measurement": "IC50", "setting": "NIH3T3; Mus musculus, NIH3T3, 48 h", "value": "> 50", "unit": "µM"}]}, {"smiles": "CCOC(=O)CO/N=C(/c1ccc(SC)cc1)c1cccc2ccccc12", "note": "[Compound 5p, Ethyl 2-((4-(methylthio)phenyl) (naphthalen-1-yl)methyleneaminooxy) acetate]", "values": [{"measurement": "IC50", "setting": "K562; Homo sapiens, K562, 48 h", "value": "> 50", "unit": "µM"}, {"measurement": "IC50", "setting": "HL60; Homo sapiens, HL-60, 48 h", "value": 15, "unit": "µM"}, {"measurement": "IC50", "setting": "NIH3T3; Mus musculus, NIH3T3, 48 h", "value": "> 50", "unit": "µM"}]}, {"smiles": "CSc1ccc(/C(=N/OCCCCNCCc2ccccc2)c2cccc3ccccc23)cc1", "note": "[Compound 8c, (4-(methylthio)phenyl)(naphthalen-1-yl)methanone O-4-(phenethylamino)butyl oxime]", "values": [{"measurement": "IC50", "setting": "K562; Homo sapiens, K562, 48 h", "value": "> 30", "unit": "µM"}, {"measurement": "IC50", "setting": "HL60; Homo sapiens, HL-60, 48 h", "value": "> 50", "unit": "µM"}, {"measurement": "IC50", "setting": "NIH3T3; Mus musculus, NIH3T3, 48 h", "value": "> 50", "unit": "µM"}]}, {"smiles": "COc1ccc(/C(=N/OCCN2CCOCC2)c2cccc3ccccc23)cc1", "note": "[Compound 6h, (4-methoxyphenyl)(naphthalen-1-yl)methanone O-2-morpholinoethyl oxime]", "values": [{"measurement": "IC50", "setting": "K562; Homo sapiens, K562, 48 h", "value": 19, "unit": "µM"}, {"measurement": "IC50", "setting": "HL60; Homo sapiens, HL-60, 48 h", "value": "> 50", "unit": "µM"}, {"measurement": "IC50", "setting": "NIH3T3; Mus musculus, NIH3T3, 48 h", "value": 26, "unit": "µM"}]}, {"smiles": "CCN(CC)CCO/N=C(/c1ccc(SC)cc1)c1cccc2ccccc12", "note": "[Compound 5k, (4-(methylthio)phenyl)(naphthalen-1-yl)methanone O-2-(diethylamino)ethyl oxime tartrate]", "values": [{"measurement": "IC50", "setting": "K562; tartrate", "value": "> 50", "unit": "µM"}, {"measurement": "IC50", "setting": "HL60; tartrate", "value": "> 50", "unit": "µM"}, {"measurement": "IC50", "setting": "NIH3T3; tartrate", "value": "> 50", "unit": "µM"}]}, {"smiles": "CSc1ccc(/C(=N/OCCN2CCCCCC2)c2cccc3ccccc23)cc1", "note": "[Compound 5h, (4-(methylthio)phenyl)(naphthalen-1-yl)methanone O-2-(azepan-1-yl)ethyl oxime oxalate]", "values": [{"measurement": "IC50", "setting": "K562; Homo sapiens, K562, 48 h", "value": "> 50", "unit": "µM"}, {"measurement": "IC50", "setting": "HL60; Homo sapiens, HL-60, 48 h", "value": "> 50", "unit": "µM"}, {"measurement": "IC50", "setting": "NIH3T3; Mus musculus, NIH3T3, 48 h", "value": "> 50", "unit": "µM"}]}, {"smiles": "CCN(CC)C(=O)CO/N=C(/c1ccc(SC)cc1)c1cccc2ccccc12", "note": "[Compound 5q, N,N-diethyl-2-((4-(methylthio)phenyl) (naphthalen-1-yl)methyleneaminooxy)acetamide]", "values": [{"measurement": "IC50", "setting": "K562; Homo sapiens, K562, 48 h", "value": "> 50", "unit": "µM"}, {"measurement": "IC50", "setting": "HL60; Homo sapiens, HL-60, 48 h", "value": "> 50", "unit": "µM"}, {"measurement": "IC50", "setting": "NIH3T3; Mus musculus, NIH3T3, 48 h", "value": "> 50", "unit": "µM"}]}, {"smiles": "CCCCN(C)CCCO/N=C(/c1ccc(SC)cc1)c1cccc2ccccc12", "note": "[Compound 7d, (4-(methylthio)phenyl)(naphthalen-1-yl)methanone O-3-(butyl(methyl)amino)propyl oxime]", "values": [{"measurement": "IC50", "setting": "K562; Homo sapiens, K562, 48 h", "value": "> 50", "unit": "µM"}, {"measurement": "IC50", "setting": "HL60; Homo sapiens, HL-60, 48 h", "value": 13, "unit": "µM"}, {"measurement": "IC50", "setting": "NIH3T3; Mus musculus, NIH3T3, 48 h", "value": "> 50", "unit": "µM"}]}, {"smiles": "COc1ccc(/C(=N/OCCN2CCCCCC2)c2cccc3ccccc23)cc1", "note": "[Compound 6g, (4-methoxyphenyl)(naphthalen-1-yl)methanone O-2-(azepan-1-yl)ethyl oxime oxalate]", "values": [{"measurement": "IC50", "setting": "K562; Homo sapiens, K562, 48 h", "value": 6.66, "unit": "µM"}, {"measurement": "IC50", "setting": "HL60; Homo sapiens, HL-60, 48 h", "value": "> 50", "unit": "µM"}, {"measurement": "IC50", "setting": "NIH3T3; Mus musculus, NIH3T3, 48 h", "value": 16, "unit": "µM"}]}, {"smiles": "CCN(CC)CCO/N=C(/c1ccc(SC)cc1)c1cccc2ccccc12", "note": "[Compound 5l, (4-(methylthio)phenyl)(naphthalen-1-yl)methanone O-2-(diethylamino)ethyl oxime]", "values": [{"measurement": "IC50", "setting": "K562", "value": "> 50", "unit": "µM"}, {"measurement": "IC50", "setting": "HL60", "value": "> 50", "unit": "µM"}, {"measurement": "IC50", "setting": "NIH3T3", "value": "> 50", "unit": "µM"}]}]}
